From patent publication US20220127258A1, “AROMATIC RING OR HETEROAROMATIC RING COMPOUNDS, PREPARATION METHOD THEREFOR AND MEDICAL USE THEREOF” (The National Institutes of Pharmaceutical R&D Co., Ltd., priority 2019, published 2022)

Experiments:
[1] = tested on: cholestasis rat induced by ANIT; test: Efficacy on the cholestasis rat model induced by 1-naphthyl isothiocyanate (ANIT); type: in vivo, SD rats; set-up: ALT / AST / GGT / TBA: unit not given here; settings: for level of ALT, AST, GGT and TBA in the serum of ANIT rat (in words): 3 and 10 mg/kg/d, conclusion of Test Example 2; for ALT / AST / GGT / TBA: serum, 4 days, ANIT rat
Description: Animals: SD rats, male, 7 to 8 weeks old, weight: 220 to 240 g, purchased from Beijing Vital River Laboratory Animal Technology Co., Ltd., SPF grade, Certificate No.: SCXK (Beijing) 2016-0011, license issuing administration: Beijing Municipal Commission of Science and Technology.
Sample formulation: The compound of the present invention was added to DMSO, and dissolved completely by ultrasound. 0.5% CMC-Na was added to constant volume (DMSO: 0.5% CMC-Na=1:99), and the solution was homogenized by ultrasound for later use.
After 3 to 5 days of acclimation, the animals were divided into 20 groups according to body weight: normal group, model group, Example 8 (3 mg/kg/d, 10 mg/kg/d) group, Example 11 (3 mg/kg/d, 10 mg/kg/d) group, Example 12 (3 mg/kg/d, 10 mg/kg/d) group, Example 14 (3 mg/kg/d, 10 mg/kg/d) group, Example 20 (3 mg/kg/d, 10 mg/kg/d) group, Example 22 (3 mg/kg/d, 10 mg/kg/d) group, Example 26 (3 mg/kg/d, 10 mg/kg/d) group, Example 28 (3 mg/kg/d, 10 mg/kg/d) group, and Example 29 (3 mg/kg/d, 10 mg/kg/d) group, with 10 rats for each group. Intragastric administration was conducted with an administration volume of 10 mL/kg, once a day, for a total of 4 days. On Day 2, ANIT (1-naphthyl isothiocyanate, Macklin, purity: 98%, item number: N814658, CAS number: 551-06-4, specification: 5 g/bottle, storage conditions: 2 to 8 degrees, batch number: C10116101) with a dose of 50 mg/kg and an administration volume of 5 mL/kg was administered intragastrically once to each animal (except for animals in the normal group) 4 hours after the administration. The animals were fasted on Day 4 morning. The animals were anesthetized by isoflurane inhalation using a small animal anesthesia machine. Blood was collected from the venous plexus behind the eyeball using a capillary glass tube (about 1 ml per animal), and then left to stand for about one hour. It was centrifuged at 3500 rpm for 10 minutes to obtain the serum. ALT, AST, GGT and TBA indexes as well as the plasma concentration of the compound were determined using an AU480 automatic biochemical analysis system (BECKMAN COULTER). Liver was collected, weighed, and cutted into pieces. Normal saline was added (liver weight: normal saline=1:2), and the mixture was homogenized and freezed. The concentration of the compound in liver was determined using an ultra performance liquid chromatograph (Shimadzu, LC 30AD) and triple quadrupole mass spectrometer (AB, TQ5500).

FXR = target: T1, FXR (Homo sapiens, UniProt Q96RI1); test: FXR agonistic activity, luciferase assay; type: cell-based; settings: luc2P-GAL4-HEK293 cells transfected with pBIND-FXR, 24 hours
T1 sequence (Q96RI1 262-486 limits assumed): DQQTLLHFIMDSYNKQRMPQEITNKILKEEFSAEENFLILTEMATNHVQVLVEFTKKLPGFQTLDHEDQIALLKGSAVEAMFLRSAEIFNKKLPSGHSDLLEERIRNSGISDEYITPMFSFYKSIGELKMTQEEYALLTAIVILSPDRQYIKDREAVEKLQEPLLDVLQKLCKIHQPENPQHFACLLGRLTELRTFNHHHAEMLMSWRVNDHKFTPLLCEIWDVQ
Description: The FXR agonistic activity of the compound of the present invention was evaluated using the luciferase assay.
The experimental process comprises the follows. The luc2P-GAL4-HEK293 stably transfected cell line (the cell line was established by transfecting pGL4.35 plasmid with HEK293 cells which was then subjected to Hygromycin B screening. The cell contained 9×GAL4 UAS and firefly luciferase reporter gene. The ligand-activated LBD-GAL4 DBD fusion protein can enter the nucleus to bind to 9×GAL4 UAS and activate the transcription of the downstream luciferase reporter gene) was transferred to a 96-well plate with […] per well. pBIND-FXR (Which was constructed by inserting FXR-LBD into pFN26A-BIND hRluc-neo Flexi® vector. The plasmid was 7.5 kb in size, Amp resistant, contained FXR-LBD, and can express FXR-LBD and GAL4 DBD fusion proteins) was transfected using X-tremeGENE HP transfection reagent. The ratio of plasmid to transfection reagent was 1 μg: 2 μl. The specific amount was 100 ng of plasmid and 0.2 μl of X-tremeGENE HP transfection reagent per well. The test compounds (the highest concentration of each compound was 30 μM, 3-fold dilution, a total of 10 concentrations) were added to induce the expression of luciferase. After 24 hours, the 96-well plate containing the test cells was taken out from the incubator, and placed at room temperature. Dual-Glo® Luciferase Reagent with the volume equal to the volume of the medium in the well (80 μl/well) was added to each well and mixed well. The plate was incubated at room temperature for 20 minutes to allow the cells to be fully lysed. All the liquid in the plate was transferred to a 96-well microtiter plate, and the firefly luciferin value was measured with a multi-function plate reader (manufacturer: Bio Tek (USA); model: Synergy4). Dual-Glo® a Stop & Glo® Reagent with the volume equal to the volume of the initial medium (80 μl/well) was added to each well and mixed well. The plate was incubated at room temperature for 10 minutes, and the renilla luciferin value was measured. The measurement order of renilla fluorescence should be the same as that of firefly fluorescence. Curve fitting and EC50 calculation were conducted using GraphPad Prism 5 software by nonlinear regression method. The fitting equation is: Y=Bottom+(Top−Bottom)/(1+10^((Log EC50−X)*HillSlope)), wherein EC50 refers to the semi-effective concentration, Top refers to the maximum effect, Bottom refers to the blank effect, and HillSlope refers to the slope.

Structure (SMILES)	level of ALT, AST, GGT and TBA in the serum of ANIT rat (in words) [1]	ALT ([1]; 3 mg/kg/d intragastric)	AST ([1]; 3 mg/kg/d intragastric)	GGT ([1]; 3 mg/kg/d intragastric)	TBA ([1]; 3 mg/kg/d intragastric)	ALT ([1]; 10 mg/kg/d intragastric)	AST ([1]; 10 mg/kg/d intragastric)	GGT ([1]; 10 mg/kg/d intragastric)	TBA ([1]; 10 mg/kg/d intragastric)	EC50 (FXR)
O=C(O)c1ccc(-c2nnc(N3[C@@H]4CC[C@H]3C[C@@H](OCc3c(-c5c(Cl)cccc5Cl)noc3C3CC3)C4)o2)cc1 [Example 8, 4-(5-((1R,3r,5S)-3-((5-cyclopropyl-3-(2,6-dichlorophenyl)isoxazol-4-yl)methoxy)-8-azabicyclo[3.2.1]octan-8-yl)-1,3,4-oxadiazol-2-yl)benzoic acid]	significantly reduce	164.8 ± 85.0	401.8 ± 172.8	2.5 ± 0.7	100.0 ± 99.8	79.9 ± 98.7	243.5 ± 192.6	2.0 ± 0.5	32.9 ± 68.0	< 0.025 µM
O=C(O)c1ccc(-c2nnc(N3[C@@H]4CC[C@H]3C[C@@H](OCc3c(-c5c(Cl)cccc5Cl)noc3C3CC3)C4)o2)s1 [Example 11]	significantly reduce	276.3 ± 118.0	761.3 ± 253.7	4.9 ± 0.9	243.4 ± 72.4	180.3 ± 107.8	466.1 ± 242.4	3.7 ± 1.5	190.3 ± 140.7	0.1 to 0.5 µM
Cc1cc(C(=O)O)ccc1-c1nnc(N2[C@@H]3CC[C@H]2C[C@@H](OCc2c(-c4c(Cl)cccc4Cl)noc2C2CC2)C3)o1 [Example 14]	significantly reduce	220.3 ± 104.0	643.3 ± 239.3	4.6 ± 1.3	235.8 ± 80.1	45.5 ± 11.9	181.4 ± 20.8	1.7 ± 0.4	20.3 ± 12.3	< 0.025 µM
O=C(O)c1ccc(-c2nnc(N3[C@@H]4CC[C@H]3C[C@@H](OCc3c(-c5ccccc5OC(F)(F)F)noc3C3CC3)C4)o2)cc1 [Example 22, 4-(5-((1R,3r,5S)-3-((5-cyclopropyl-3-(2-(trifluoromethoxy)phenyl)isoxazol-4-yl)methoxy)-8-azabicyclo[3.2.1]octan-8-yl)-1,3,4-oxadiazol-2-yl)benzoic acid]	significantly reduce	100.8 ± 90.9	324.8 ± 313.1	2.7 ± 1.7	73.3 ± 103.2	44.5 ± 8.1	163.3 ± 21.3	1.8 ± 0.5	27.4 ± 13.6	< 0.025 µM
